Entries after “also recorded” stand apart in the source; their conditions may differ. Like-named read-outs stand apart in the source and are kept apart here.

Consider six compounds from patent EP3027213B1, “COMPOSITIONS FOR AMELIORATING AND/OR PREVENTING ADVERSE SIDE EFFECTS IN ANTIBIOTIC THERAPY” (priority 2013, dated 2015).

In data set [1] the test system is human HT29 rho zero cell line. The experiment in a line: Growth of rho zero cells with alternative pyruvate or uridine sources, phase contrast microscopy (Example 5, Fig. 6). The data set is classed as cell-based. The settings on record: day 9. The method, then: Side effects of antibiotics can be ameliorated by administration of pyruvate and uridine. This observation can be further substantiated by applying alternative pyruvate or uridine sources, as for example alanine and uridine monophosphate (UMP). • Alternative pyruvate source: To challenge this hypothesis, cells devoid of mitochondrial DNA (rho zero cells) resembling cells that were treated with the antibiotics and have lost their mitochondrial encoded proteins, were cultured in the presence of uridine, alanine and uridine or pyruvate and uridine. […] Cells growth medium was supplemented with uridine (0.2 mM uridine) or alanine (1-10 mM alanine) and uridine (0.2 mM uridine) or pyruvate (1 mM sodium pyruvate) and uridine (0.2 mM uridine) (see figure 6a). […] Thus, pyruvate can be substituted by alternative pyruvate sources to ameliorate side effects of antibiotics. • Alternative uridine source: To challenge this hypothesis, cells devoid of mitochondrial DNA (rho zero cells) resembling cells that were treated with the antibiotics and have lost their mitochondrial encoded proteins, were cultured in the presence of UMP, alanine and UMP or pyruvate and UMP. […] Cells growth medium was supplemented with UMP (0.2 mM UMP) or alanine (1-10 mM alanine) and UMP (0.2 mM UMP) or pyruvate (1 mM sodium pyruvate) and UMP (0.2 mM UMP) (see figure 6b). […] Thus, UMP can be substituted by alternative pyrimidine source to ameliorate side effects of antibiotics.

Data set [2] has as its system 143B.TK^- cells. The experiment in a line: cells. The data set is classed as cell-based. As to conditions: Homo sapiens, 240 h, chloramphenicol 50 nM - 300 µM, 10 days. The method, then:
The half maximal inhibitory concentration (IC50) is a measure of the effectiveness of a compound in inhibiting biological or biochemical function. This quantitative measure indicates, how much of a particular drug or compound is needed to inhibit a given biological process by half. In this case, the IC50 value was determined for the side-effect of the antibiotic on human cells in the presence or absence of pyruvate and/or uridine. IC50 values were determined utilizing resazurin (Cell-Quanti-Blue Cell Viability Assay Kit, Biotrend Chemikalien GmbH, Köln), a fluorescent dye indicating vital living or dead cells. For the experiment, 24-well culture dishes were seeded with a dilution of 143B.TK^- cells (10^3 cells each). The culture medium was composed of DMEM FG0445 (containing sodium pyruvate, high-glucose, glutamine; at the discretion of the supplier) supplemented with 5% FCS and 0.5 % uridine. After an initial growth of two days, cells were washed in PBS. From here, cells were grown in DMEM F0435 (containg high-glucose, without pyruvate, without glutamine; at the discretion of the supplier) supplemented with 2 % glutamine and 5% FCS. Depending on the subsequent experiments, cell growth medium was further supplemented with: • 1. w/o chloramphenicol, w/o pyruvate, w/o uridine • 2. w chloramphenicol (50 nM - 300 µM), w/o pyruvate, w/o uridine • 3. w chloramphenicol (50 nM - 300 µM), w/o pyruvate, w uridine (50 µg/ml) • 4. w chloramphenicol (50 nM - 300 µM), w pyruvate (100 µg/ml), w/o uridine • 5. w chloramphenicol (50 nM - 300 µM), w pyruvate (100 µg/ml), w uridine (50 µg/ml)
Growth medium was changed every 12 hours. The experiment was carried out for 10 days.
Measures of sets 2-5 were normalized by measure 1. Thus, when cell vitality under chloramphenicol treatment is similar to normal cell growth (measure 1), the ratio of (measure 2, 3, 4, 5) /(measure 1) expressed in % should stay close to 1. […] When pyruvate or pyruvate + uridine were added to the growth medium, IC50 of CAP was out of range (> 300 µM).

Data set [3] deals with 143B.TK^- cells. The data set is classed as cell-based, human. The method, then: Left panel: 143B.TK^- cells containing a green colorizing gene (GFP, green color) were seeded and grown to the original density in normal growth medium (left, 1). At day 1, medium was changed to allow cell growth under pyruvate and uridine free conditions; the medium was supplemented with chloramphenicol (or linezolid, or tigezycline; see example 1). […] At day 6 (image 3), the imaged colony starts to disperse and diminishes. At day 8 (image 4), cell number further declines and cells ceased to exist (day 10). Right panel: 143B.TK^- cells containing a green colorizing gene (GFP, green color) were seeded and grown to the original density in normal growth medium (right, 1). At day 1, medium was changed to allow cell growth under controlled pyruvate and uridine supply; the medium was supplemented with chloramphenicol (or linezolid, or tigezycline; see example 1).
In order to understand the side effects of antibiotics, we incubated cultured human cells with antibiotics that are known to impede cell's metabolism. The experiments were carried out with chloramphenicol, tigezycline or linezolid under otherwise identical conditions. […] Cells were treated with chloramphenicol (150 µg/ml culture medium, 450 µM; or linezolid, or tigezycline) and medium was exchanged on a daily basis. […] After additional 4 days, cells ceased to exist (see figure 1a).

The subject of data set [4] is GFP-colorized 143B.TK- cells. It is filed as cell-based. The settings on record: human, 13 days, 150 µg/ml. The text has this:
(§1) The panels display co-cultures grown on petri-dishes that contain a human dermal fibroblast (HDF) monolayer inoculated with GFP-colorized 143B.TK- cells imaged by fluorescence microscopy and phase contrast microscopy. The HDF cells represent a resting post-mitotic tissue, while the GFP-colorized 143B.TK- cells mimic mitotic active cells. • Figure 1b, left panel: Without pyruvate and uridine, the side effect of chloramphenicol (or linezolid, or tigezycline) can be visualized on co-cultures similarly to the effect seen in figure 1. Approximately at day 4 of culture, the mitotic active colony enlarges and experiences growth retardation. […] The mitotic cells grow completely regularly. At day 8, the entire area is overgrown by the GFP-colorized 143B.TK^- cells.
(§2) To understand the influence of the antibiotic on cell cycles state, a co-culture was established that was based on a primary fibroblasts monolayer (mimicking cells at resting state) that was inoculated with 143B.TK^- cells (mimicking cells in mitotic state, dividing cells).
(§3) However, the fibroblast layer was completely unaffected and vital to start regrowth again (proven by executing scratches through the monolayer; "wound-healing" set in immediately). […] Both side-effects could be removed by co-administering uridine and/or pyruvate or derivatives thereof.

In data set [5] the test system is human dermal fibroblast (HDF) monolayer. The data set is classed as cell-based.
Source text: as §1
(§4) The panels display co-cultures grown on petri-dishes that contain a human dermal fibroblast (HDF) monolayer inoculated with GFP-colorized 143B.TK^- cells and dsRED-colorized 143B.TK^-CAP-res cells. The dsRED-colorized 143B.TK^-CAP-res cells contain a mitochondrial genotype that renders the cells chloramphenicol resistant.
as §2, §3

In data set [6] the test system is GFP-colorized 143B.TK^- cells. It is filed as cell-based. The settings on record: human.
Source text: as §4
(§5) To see whether or not the side-effect of these antibiotics reside within the mitochondria of the cell, a co-culture was established that was made of a primary fibroblast monolayer inoculated with 143B.TK^- and 143.TK^-CAP^res cells. The latter cell line is identical to the 143B.TK- cell line, except that these cells carry a CAP resistant mutation within the 16S rRNA gene located within the mitochondrial genome and are differently color coded.

The test system of data set [7] is dsRED-colorized 143B.TK^-CAP-res cells. Kind of data set: Co-culture with chloramphenicol-sensitive and -resistant cells: resistant cells (Fig. 1d). The data set is classed as cell-based, human. As to conditions: co-culture on HDF monolayer with 143B.TK^- cells, uridine and pyruvate not supplied.
Source text: as §4, §5

In a further data set the test system is B. subtilis DSM 347. Kind of data set: Paper pad agar diffusion test, non-growth zone (Examples 2 and 3). The data set is classed as cell-based. As to conditions: APT-plates as is or supplemented with uridine (50 µg/ml), sodium pyruvate (1 mM) or both; three concentrations; over night at 37°C. The method, then: (§6) Paper test pads (Rotiolabo, 6mm, Roth, Karlsruhe) were soaked with 7.5 µl of antibiotic-solution (concentrations used: 0.5 mM CAP; 0.77 mM CAP; 1.2 mM CAP; 0.15 mM LIN; 0.25 mM LIN; 0,4 mM LIN; 0.15 mM TIG; 0.25 mM TIG; 0.4 mM TIG) and placed on top of the agar plates (CAP- and LIN-solutions on APT/B. subtilis plates, TIG-solutions on LB/E. coli plates). Petri dishes were incubated over night at 37°C and analyzed by measuring the size of the non-growth zone of bacteria surrounding the antibiotics soaked paper pads (see figure 3a, and 3b).
(§7) Paper test pads (Rotiolabo, 6mm, Roth, Karlsruhe) were soaked with 7.5 µl of antibiotic-solution (concentrations used: 0.5 mM CAP; 0.77 mM CAP; 1.2 mM CAP; 0.15 mM LIN; 0.25 mM LIN, 0.4 mM LIN; 0.15 mM TIG, 0.25 mM TIG; 0.4 mM TIG; 0.5 mM CAP + 0.15 mM LIN; 0.77 mM CAP + 0.25 mM LIN; 1.2 mM CAP + 0.4 mM LIN; 0.5 mM CAP + 0.15 mM LIN + 0.15 mM TIG; 0.77 mM CAP + 0.25 mM LIN + 0.25 mM TIG; 1.2 mM CAP + 0.4 mM LIN + 0.4 mM TIG; 0.5 mM CAP + 0.15 mM TIG; 0.77 mM CAP + 0.25 mM TIG; 1.2 mM CAP + 0.4 mM TIG) and placed on top of the agar plates (CAP- and LIN-solutions on APT/B. subtilis plates, TIG-solutions on LB/E. coli plates). Petri dishes were incubated over night at 37°C and analyzed by measuring the size of the non-growth zone of bacteria surrounding the antibiotics soaked paper pads (see figure 2a, and 2b).
(In general: In agar diffusion tests the substance spreads into inoculated agar from a disc or well.)

In another data set the test system is E. coli DH5α. Described as above. The settings on record: LB plates as is or supplemented with uridine (50 µg/ml), sodium pyruvate (1 mM) or both; three concentrations; over night at 37°C. It is filed as cell-based. The method, then:
as §6, §7

[8] abbreviates: 0.2 mM uridine source alone, without any pyruvate source.

As to `O=c1ccn([C@@H]2O[C@H](COP(=O)(O)O)[C@@H](O)[C@H]2O)c(=O)[nH]1` [UMP, uridine monophosphate], the cell growth result in [1] (setting [8]) is “did not exhibit cell growth; also recorded: cell growth stalls and comes to an halt”.
In the case of `C[C@H](N)C(=O)O` [alanine], the cell growth entry in [1] (on UMP supplemented media (0.2 mM UMP), alanine 1-10 mM or sodium pyruvate 1 mM) was “displayed regular cell growth; also recorded: cells prosper and grow almost in the same range as normal cells”; in data set [1] (on uridine supplemented media (0.2 mM uridine), alanine 1-10 mM or sodium pyruvate 1 mM), “displayed regular cell growth; also recorded: cells prosper and grow almost in the same range as normal cells”.
The IC50 is the concentration that inhibits the measured activity by half. A higher IC50 goes with lower potency. For the compound `O=C(N[C@H](CO)[C@H](O)c1ccc([N+](=O)[O-])cc1)C(Cl)Cl` [chloramphenicol], the IC50 is more than 300 µM in the data set on 143B.TK^- cells [2] (w pyruvate (100 µg/ml), w uridine (50 µg/ml)); more than 300 µM in the data set with 143B.TK^- cells [2] (w pyruvate (100 µg/ml), w/o uridine); 7.5 µM with 143B.TK^- cells [2] (w/o pyruvate, w uridine (50 µg/ml)); 3.2 µM with 143B.TK^- cells [2] (w/o pyruvate, w/o uridine). In addition, the cell growth entry was “growth behavior of the cells was not altered by the antibiotic” in the data set on 143B.TK^- cells [3]; “cell growth retarded and came to a halt after 6 days” with 143B.TK^- cells [3] (human, 150 µg/ml); “cells stopped growth after 4-5 days and ceased to exist after additional 6 days” in [6]; “exhibited no limitation in cell growth; also recorded: not influenced by the side-effect of chloramphenicol and grew regularly” in data set [7]; “not influenced by CAP” in data set [7] (listed as CAP). For the same compound, in data set [4], the “growth of the mitotic active colony” value was “finally ceases to exist at day 13”. Moreover, the “cell vitality of the HDF monolayer” value in [5] is on record as “no change in cell vitality”. The “Antibiotic effect (size of the non-growth zone)” value in the data set on B. subtilis DSM 347 was “not rendered by the co-administered compounds uridine and/or pyruvate; also recorded: independent of pyruvate, uridine or pyruvate + uridine supplementation”; in the data set on E. coli DH5α it was “independent of pyruvate, uridine or pyruvate + uridine supplementation”.
Consider `CC(=O)NC[C@H]1CN(c2ccc(N3CCOCC3)c(F)c2)C(=O)O1` [linezolid], for which the cell growth entry is “growth behavior of the cells was not altered by the antibiotic” in the data set on 143B.TK^- cells [3]; “cell growth retarded and came to a halt after 6 days” in the data set on 143B.TK^- cells [3] (human, 150 µg/ml). The “growth of the mitotic active colony” value in data set [4] is listed as “finally ceases to exist at day 13”. Also, the “cell vitality of the HDF monolayer” value in data set [5] is listed as “no change in cell vitality”. Further, the “Antibiotic effect (size of the non-growth zone)” value in the data set on B. subtilis DSM 347 was “not rendered by the co-administered compounds uridine and/or pyruvate; also recorded: independent of pyruvate, uridine or pyruvate + uridine supplementation”.
As for `CN(C)c1cc(NC(=O)CNC(C)(C)C)c(O)c2c1C[C@H]1C[C@H]3[C@H](N(C)C)C(O)=C(C(N)=O)C(=O)[C@@]3(O)C(O)=C1C2=O` [tigezycline], the cell growth entry in the data set on 143B.TK^- cells [3] is “growth behavior of the cells was not altered by the antibiotic”; with 143B.TK^- cells [3] (human, 150 µg/ml) it was “cell growth retarded and came to a halt after 6 days”. Moreover, the “growth of the mitotic active colony” value in data set [4] is “finally ceases to exist at day 13”. For the same compound, the “cell vitality of the HDF monolayer” value in [5] is “no change in cell vitality”. In addition, the “Antibiotic effect (size of the non-growth zone)” value with E. coli DH5α was “not rendered by the co-administered compounds uridine and/or pyruvate; also recorded: independent of pyruvate, uridine or pyruvate + uridine supplementation”.
In the case of `O=c1ccn([C@@H]2O[C@H](CO)[C@@H](O)[C@H]2O)c(=O)[nH]1` [uridine], in data set [1] (setting [8]), the cell growth entry was “did not exhibit cell growth; also recorded: cell growth stalls and comes to an halt”.
